# Experiments:
# [1] = Rotation stability of the composition, crystalline form assessed by X-ray diffraction; assay type: physicochemical; conditions: in the aqueous composition; rotated for five days at 35° C. and an additional four weeks at room temperature
# From the text: The crystalline form may be assessed using X-ray diffraction methods.
# [2] = aqueous solution; converted to a different crystalline form after storage at 35° C.; cited from earlier work
# [3] = Storage stability of the composition, crystalline form assessed by X-ray diffraction; assay type: physicochemical; conditions: in the aqueous composition
# From the text: The stability of the compositions in accordance with the present invention may be defined by standard methods. The anhydrous crystalline form is stable at room temperature. […] The crystalline form may be assessed using X-ray diffraction methods.
# [4] = Stability of the API on boiling/stirring in water, tested by X-ray diffraction; assay type: physicochemical; conditions: boiling in water (with and without Tween 80), two hours stirring at 70 deg in a water bath, then 2 hours at 70 deg on a magnetic stirrer; residue dried at 25° C. under vacuum
# Method: The monohydrate peak is clearly visible in the BX 2029 trace, and is absent in the remaining pattern, indicating the presence of anhydrous form in the formulation. Stability of the mometasone furoate anhydrous API was confirmed by boiling in water (with and without the surfactant Tween 80) for two hours whilst stirring at 70 deg in a water bath, followed by 2 hours at 70 deg on a magnetic stirrer. The solution was cooled to room temperature, filtered and the residue containing the API was dried at 25° C. under vacuum. […]
smiles,measurement,setting,value
C[C@@H]1C[C@H]2[C@@H]3CCC4=CC(=O)C=C[C@]4(C)[C@@]3(Cl)[C@@H](O)C[C@]2(C)[C@@]1(OC(=O)c1ccco1)C(=O)CCl [anhydrous mometasone furoate],crystalline form of the anhydrous mometasone furoate in the composition,[1],does not change
same,stability of the crystalline form in aqueous composition,[2],unstable
same,crystalline form of the anhydrous mometasone furoate in the composition,[3]; 25° for a period of three months,does not change
same,crystalline form of the anhydrous mometasone furoate in the composition,[3]; 40° C. for a period of three months,does not change
same,XRD pattern of the dried sample after treatment in water,[4],concordant with that of mometasone furoate anhydrous
